Reference: patent US20150098969A1, “ALTERNARIA PEPTIDES” (priority 2012, published 2015)
Where no end group is shown, it is not given here. [ ]: non-standard residue; d: D form. pGlu = O=C1CC[C@@H](C(=O)O)N1; Nle = CCCC[C@H](N)C(=O)O

Test system: Peripheral blood mononuclear cells (PBMCs)
Test: Cytokine release assay (multiplex bead assay IL-10, IL-13, IFN-g) and analysis of population coverage
Assay type: cell-based, human
Details: cytokine release greater than 50 pg/ml in one or more of IL-13, IL-10, IFN-g; 50 mould allergic subjects; 100 μg/ml; 5 days
Experimental: Polypeptides for use in this assay were manufactured at small scale (approximately 10 mg batch size, non-GMP). […] Polypeptides were added to wells in a volume of 100 μl containing polypeptides at a concentration of […], such that subsequent addition of 100 μl of cells would create a final assay concentration of 100 μg/ml.
Peripheral blood mononuclear cells (PBMCs) were isolated from heparinised blood by Ficoll density gradient centrifugation. […] Following stimulation, culture supernatants (100 μl) were harvested for testing by multiplex bead assay.
Multiplex cytokine bead assays (IL-10, IL-13, Interferon gamma (IFN-g)) were performed on thawed culture supernatants according to the manufacturer's instructions. Single measurements were performed for each culture supernatant sample. After completion of the multiplex assay, individual cytokine levels were determined by interpolation from the standard curve generated in the assay. A positive result was taken as a cytokine release of greater than 50 pg/ml in one or more of the IL-13, IL-10 and IFN-g assays. The number of responders out of 50 mould allergic subjects tested was calculated for each polypeptide for the three cytokines.
An analysis of population coverage was carried out to determine what polypeptides could advantageously capture additional responses from the population when included in combination with other peptides. The number of subjects in the population displaying IL-13 or IFN-g responses to at least one, two or three polypeptides included in a given combination was analysed.
An analysis of population coverage was then carried out for additional combinations of polypeptides identified as having preferable pharmaceutical development characteristics. The number of subjects in the population displaying IL-13 or IFN-g responses to at least one, two or three polypeptides included in a given combination was analysed.

| Substance | % responders [%] |
| --- | --- |
| AEVYQKLKALAKK [Alt12] | 38 |
| AEVYQKLKALAKKTYGQ [Alt13A] | 86 |
| DITYVATATLPNYSR [Alt02A] | 30 |
| GLHFRERKTGSLVIT [Alt21] | 38 |
| GWGV-Nle-VSHRSGET (GWGV[Nle]VSHRSGET) [Alt14A] | 56 |
| GWGVMVSHRSGET [Alt14] | 44 |
| GYTGKIKIA-Nle-DVASSE (GYTGKIKIA[Nle]DVASSE) [Alt15A] | 42 |
| GYTGKIKIAMDVASSE [Alt15] | 56 |
| HEIYVVDRVSAP [Alt30] | 36 |
| IEKLRSNITVQYDI [Alt33] | 44 |
| IFRSLSKEDPDY [Alt04] | 6 |
| IFRSLSKEEPDY [Alt04A] | 4 |
| KDAYITLVTLPKSS [Alt03] | 22 |
| KDITYVATATLPNY [Alt02] | 36 |
| KEYQKIFPSIQVI [Alt09] | 6 |
| KKDAYITLVTLPKSS [Alt03A] | 16 |
| KKVS-Nle-AIAKAAAAEK (KKVS[Nle]AIAKAAAAEK) [Alt11A] | 44 |
| KKVSMAIAKAAAAEK [Alt11] | 36 |
| KKYAGVFVSTGTLGGGK [Alt18] | 50 |
| KLFQVAETLPQEVLDK [Alt17] | 30 |
| KLWHS-Nle-IP-Nle-GRDAK (KLWHS[Nle]IP[Nle]GRDAK) [Alt24A] | 40 |
| KLWHSMIP-Nle-GRDAK (KLWHSMIP[Nle]GRDAK) [Alt24C] | 36 |
| KLWHSMIPMGRDAK [Alt24] | 34 |
| KQLL-Nle-LSAKR-Nle-KVAFK (KQLL[Nle]LSAKR[Nle]KVAFK) [Alt05A] | 10 |

| Substance | % responders [%] |
| --- | --- |
| KQLL-Nle-LSAKRMKVAFK (KQLL[Nle]LSAKRMKVAFK) [Alt05B] | 12 |
| KQLLMLSAKR-Nle-KVAFK [Alt05C] | 16 |
| KQLLMLSAKRMKVAFK [Alt05] | 2 |
| KRSLLVFAVRSS-Nle-ELRK [Alt27A] | 42 |
| KRSLLVFAVRSSMELRK [Alt27] | 40 |
| KSAFRSIEPELTVYK [Alt10A] | 34 |
| KTYVATATLPNY [Alt02B] | 22 |
| KYRRVVRAGVKVAQTAR [Alt34A] | 38 |
| KYWLYFYKLHPEK [Alt32] | 36 |
| LAITYNSRAEGAEK [Alt20] | 38 |
| LQFTLYRPRDLLS [Alt07] | 10 |
| NEWRDFARVNSISP [Alt23] | 40 |
| NWLTLHTAALGPTAK [Alt31] | 58 |
| PyrKLKALAKKTYGQ ([pGlu]KLKALAKKTYGQ) [Alt13] | 40 |
| SAFRSIEPELTVY [Alt10] | 42 |
| SAKR-Nle-KVAFKLDIEK (SAKR[Nle]KVAFKLDIEK) [Alt06A] | 10 |
| SAKRMKVAFKLDIEK [Alt06] | 16 |
| SLGFNIKATNGGTLD [Alt01A] | 26 |
| SYNVAKAGCIHLAK [Alt22] | 46 |
| SYNVAKAGSIHLAK [Alt22A] | 44 |
| TLYRPRDLLSLLNE [Alt08] | 10 |
| TYYNSLGFNIKATNGGTL [Alt01] | 20 |
| WSWKIGPAIATGNT [Alt28] | 52 |
| YEKYRRVVRAGVKV [Alt34] | 38 |

Same assay, conditions: responders out of 50 individuals

| Substance | individuals showing a response |
| --- | --- |
| AEVYQKLKALAKKTYGQ [Alt13A] | 34/50 |
